# According to publication PMC6437697 (Journal of Medicinal Chemistry, 2019):
# How the values were obtained:
# Experiment in all cases: KINOMEscan
# Type in all cases: binding
# Settings in all cases: read-out: % control activity remaining
# CSNK1E = target: T1, CSNK1E (Homo sapiens, UniProt P49674)
# T1 construct: purchased Eurofins DiscoverX KINOMEscan
# CTK = target: T2, CTK (Homo sapiens, UniProt P42679)
# T2 construct: purchased Eurofins DiscoverX KINOMEscan
# T2 sequence (P42679 1-507): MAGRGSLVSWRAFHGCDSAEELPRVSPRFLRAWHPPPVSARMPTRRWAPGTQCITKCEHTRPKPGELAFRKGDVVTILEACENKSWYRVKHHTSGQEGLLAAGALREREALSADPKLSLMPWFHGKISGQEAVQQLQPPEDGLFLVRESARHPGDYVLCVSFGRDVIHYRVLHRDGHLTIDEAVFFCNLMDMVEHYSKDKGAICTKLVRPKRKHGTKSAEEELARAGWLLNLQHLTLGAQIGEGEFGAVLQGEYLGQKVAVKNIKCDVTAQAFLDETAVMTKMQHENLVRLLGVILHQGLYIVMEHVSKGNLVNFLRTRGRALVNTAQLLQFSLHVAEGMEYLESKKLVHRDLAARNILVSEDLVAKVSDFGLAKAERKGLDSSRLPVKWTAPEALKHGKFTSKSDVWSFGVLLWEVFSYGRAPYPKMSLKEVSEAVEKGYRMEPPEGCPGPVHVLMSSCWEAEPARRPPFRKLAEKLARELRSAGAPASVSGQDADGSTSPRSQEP
# LZK = target: T3, LZK (Homo sapiens, UniProt O43283)
# T3 construct: purchased Eurofins DiscoverX KINOMEscan
# T3 sequence (O43283 1-966): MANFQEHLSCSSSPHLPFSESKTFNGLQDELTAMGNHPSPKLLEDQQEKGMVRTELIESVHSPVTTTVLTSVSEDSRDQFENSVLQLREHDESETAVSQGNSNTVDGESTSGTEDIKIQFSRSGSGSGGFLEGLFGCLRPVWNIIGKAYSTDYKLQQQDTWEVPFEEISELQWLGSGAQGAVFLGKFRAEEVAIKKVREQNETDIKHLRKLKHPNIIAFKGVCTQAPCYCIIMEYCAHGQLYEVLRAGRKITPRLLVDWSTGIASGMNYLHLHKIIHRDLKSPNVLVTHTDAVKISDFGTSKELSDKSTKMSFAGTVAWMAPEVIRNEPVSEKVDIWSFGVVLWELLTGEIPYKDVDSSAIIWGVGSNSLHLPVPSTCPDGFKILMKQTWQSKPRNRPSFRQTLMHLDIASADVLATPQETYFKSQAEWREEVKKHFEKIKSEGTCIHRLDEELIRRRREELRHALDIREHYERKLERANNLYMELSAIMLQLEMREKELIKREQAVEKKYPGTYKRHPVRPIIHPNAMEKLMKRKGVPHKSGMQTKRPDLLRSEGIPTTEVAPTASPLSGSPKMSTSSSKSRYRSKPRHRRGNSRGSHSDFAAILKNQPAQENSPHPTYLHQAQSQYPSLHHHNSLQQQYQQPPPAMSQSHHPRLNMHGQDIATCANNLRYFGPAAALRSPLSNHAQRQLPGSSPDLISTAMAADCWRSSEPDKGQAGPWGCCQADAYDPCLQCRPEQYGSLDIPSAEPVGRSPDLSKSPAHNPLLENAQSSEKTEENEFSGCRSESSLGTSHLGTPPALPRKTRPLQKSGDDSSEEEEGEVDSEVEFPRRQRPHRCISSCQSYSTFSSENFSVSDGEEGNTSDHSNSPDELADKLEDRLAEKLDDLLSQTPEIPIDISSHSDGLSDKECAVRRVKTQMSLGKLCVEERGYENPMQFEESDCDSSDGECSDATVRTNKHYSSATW
# NEK3 = target: T4, NEK3 (Homo sapiens, UniProt P51956)
# T4 construct: purchased Eurofins DiscoverX KINOMEscan
# T4 sequence (P51956 1-506): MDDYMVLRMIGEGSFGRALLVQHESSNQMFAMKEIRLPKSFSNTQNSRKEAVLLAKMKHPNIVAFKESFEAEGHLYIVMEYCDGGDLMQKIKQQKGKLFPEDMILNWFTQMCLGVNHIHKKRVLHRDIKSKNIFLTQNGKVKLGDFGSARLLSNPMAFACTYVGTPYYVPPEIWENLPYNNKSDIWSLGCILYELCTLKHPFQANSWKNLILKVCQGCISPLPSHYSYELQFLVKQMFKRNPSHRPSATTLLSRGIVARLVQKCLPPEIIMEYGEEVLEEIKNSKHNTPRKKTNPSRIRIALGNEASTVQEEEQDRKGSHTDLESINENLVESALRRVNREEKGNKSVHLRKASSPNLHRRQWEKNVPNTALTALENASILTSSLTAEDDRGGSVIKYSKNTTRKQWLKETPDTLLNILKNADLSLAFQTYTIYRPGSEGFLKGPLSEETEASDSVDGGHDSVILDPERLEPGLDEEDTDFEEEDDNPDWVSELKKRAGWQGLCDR
# p38-gamma = target: T5, p38-gamma (Homo sapiens, UniProt P53778)
# T5 construct: purchased Eurofins DiscoverX KINOMEscan
# T5 sequence (P53778 1-367): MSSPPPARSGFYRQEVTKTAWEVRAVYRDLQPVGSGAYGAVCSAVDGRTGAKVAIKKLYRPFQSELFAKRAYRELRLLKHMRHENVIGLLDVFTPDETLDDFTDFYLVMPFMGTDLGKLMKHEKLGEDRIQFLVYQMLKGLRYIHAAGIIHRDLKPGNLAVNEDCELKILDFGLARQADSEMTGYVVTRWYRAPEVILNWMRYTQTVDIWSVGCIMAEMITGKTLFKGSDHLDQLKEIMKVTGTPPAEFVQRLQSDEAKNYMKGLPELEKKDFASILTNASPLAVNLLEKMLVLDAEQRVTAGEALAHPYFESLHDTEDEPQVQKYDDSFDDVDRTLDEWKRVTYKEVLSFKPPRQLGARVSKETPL
# PIP5K2B = target: T6, PIP5K2B (Homo sapiens, UniProt P78356)
# T6 construct: purchased Eurofins DiscoverX KINOMEscan
# T6 sequence (P78356 1-416): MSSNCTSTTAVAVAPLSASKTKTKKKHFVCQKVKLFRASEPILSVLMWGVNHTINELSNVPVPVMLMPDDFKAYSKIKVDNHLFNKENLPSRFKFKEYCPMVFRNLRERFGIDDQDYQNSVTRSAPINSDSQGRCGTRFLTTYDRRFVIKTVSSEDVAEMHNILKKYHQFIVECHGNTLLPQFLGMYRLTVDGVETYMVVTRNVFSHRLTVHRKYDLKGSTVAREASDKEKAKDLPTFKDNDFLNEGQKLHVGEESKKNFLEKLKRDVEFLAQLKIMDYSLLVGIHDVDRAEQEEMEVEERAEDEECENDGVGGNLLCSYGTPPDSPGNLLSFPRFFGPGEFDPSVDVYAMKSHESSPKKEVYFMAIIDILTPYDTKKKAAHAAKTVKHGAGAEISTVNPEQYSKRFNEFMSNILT
# PKAC-beta = target: T7, PKAC-beta (Homo sapiens, UniProt P22694)
# T7 construct: purchased Eurofins DiscoverX KINOMEscan
# ROCK1 = target: T8, ROCK1 (Homo sapiens, UniProt Q13464)
# T8 construct: purchased Eurofins DiscoverX KINOMEscan
# T8 sequence (Q13464 whole entry): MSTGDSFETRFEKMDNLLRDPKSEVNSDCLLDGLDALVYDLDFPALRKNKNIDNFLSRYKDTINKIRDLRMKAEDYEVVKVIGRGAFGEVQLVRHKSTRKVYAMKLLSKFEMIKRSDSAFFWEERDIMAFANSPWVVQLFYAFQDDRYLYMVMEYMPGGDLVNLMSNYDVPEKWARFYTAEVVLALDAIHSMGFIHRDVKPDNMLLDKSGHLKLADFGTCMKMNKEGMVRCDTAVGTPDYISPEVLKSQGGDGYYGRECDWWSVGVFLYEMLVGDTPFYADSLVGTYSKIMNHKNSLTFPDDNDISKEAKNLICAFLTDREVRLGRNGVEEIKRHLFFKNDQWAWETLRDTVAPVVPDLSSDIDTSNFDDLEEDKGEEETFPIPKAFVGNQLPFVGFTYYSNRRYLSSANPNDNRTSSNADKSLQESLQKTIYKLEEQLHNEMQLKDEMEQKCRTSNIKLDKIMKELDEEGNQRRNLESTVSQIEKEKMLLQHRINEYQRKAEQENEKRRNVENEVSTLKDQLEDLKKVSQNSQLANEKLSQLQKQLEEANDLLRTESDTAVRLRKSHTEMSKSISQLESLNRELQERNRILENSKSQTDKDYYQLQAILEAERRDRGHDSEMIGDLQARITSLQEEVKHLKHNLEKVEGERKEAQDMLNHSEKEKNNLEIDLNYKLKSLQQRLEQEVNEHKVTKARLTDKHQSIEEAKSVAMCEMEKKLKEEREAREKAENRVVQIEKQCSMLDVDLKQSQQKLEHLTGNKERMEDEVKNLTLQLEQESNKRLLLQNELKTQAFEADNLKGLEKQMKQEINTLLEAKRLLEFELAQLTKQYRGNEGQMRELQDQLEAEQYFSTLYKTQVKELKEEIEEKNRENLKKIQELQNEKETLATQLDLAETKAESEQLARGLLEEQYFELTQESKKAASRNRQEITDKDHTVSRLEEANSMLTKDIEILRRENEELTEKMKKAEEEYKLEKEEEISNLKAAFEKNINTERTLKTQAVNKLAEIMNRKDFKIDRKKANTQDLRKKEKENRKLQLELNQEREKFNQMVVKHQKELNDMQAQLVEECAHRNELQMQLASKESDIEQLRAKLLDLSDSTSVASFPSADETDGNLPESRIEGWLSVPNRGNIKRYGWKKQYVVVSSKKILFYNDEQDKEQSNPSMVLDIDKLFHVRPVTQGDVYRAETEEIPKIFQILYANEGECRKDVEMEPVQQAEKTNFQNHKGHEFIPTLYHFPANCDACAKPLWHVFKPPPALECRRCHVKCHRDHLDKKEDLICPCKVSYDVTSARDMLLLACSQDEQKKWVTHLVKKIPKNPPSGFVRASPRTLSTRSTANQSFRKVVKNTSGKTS
# T1 sequence (P49674 whole entry): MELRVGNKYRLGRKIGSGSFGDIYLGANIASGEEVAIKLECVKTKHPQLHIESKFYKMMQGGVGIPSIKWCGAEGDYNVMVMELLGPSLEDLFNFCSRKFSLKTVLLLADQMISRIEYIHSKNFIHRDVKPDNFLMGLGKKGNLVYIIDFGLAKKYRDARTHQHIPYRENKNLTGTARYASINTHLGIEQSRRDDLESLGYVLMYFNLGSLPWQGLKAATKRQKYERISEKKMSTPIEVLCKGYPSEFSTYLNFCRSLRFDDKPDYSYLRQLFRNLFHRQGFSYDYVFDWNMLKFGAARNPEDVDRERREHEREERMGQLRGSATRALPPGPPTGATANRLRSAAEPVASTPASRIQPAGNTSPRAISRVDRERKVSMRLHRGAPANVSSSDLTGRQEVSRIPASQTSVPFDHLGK
SMILES,remaining binding at 1 µM (CSNK1E) [%],remaining binding at 1 µM (CTK) [%],remaining binding at 1 µM (LZK) [%],remaining binding at 1 µM (NEK3) [%],remaining binding at 1 µM (p38-gamma) [%],remaining binding at 1 µM (PIP5K2B) [%],remaining binding at 1 µM (PKAC-beta) [%],remaining binding at 1 µM (ROCK1) [%]
"CN1CCC(CNc2cc(Cl)nn3c(-c4cc5nc(Nc6ccccc6)[nH]c5cc4F)cnc23)CC1 [compound 31, 6-Chloro-3-(6-fluoro-2-(phenylamino)-1H-benzo[d]imidazol-5-yl)-N-((1-methylpiperidin-4-yl)methyl)imidazo[1,2-b]pyridazin-8-amine]",100,69,98,100,83,81,90,76
O=C(CN1CCOCC1)N[C@H]1CC[C@H](Nc2cc(Cl)nn3c(-c4ccc5[nH]ncc5c4)cnc23)CC1 [compound 26],44,95,100,88,91,87,99,22
"Clc1cc(NCC2CC2)c2ncc(-c3ccc4[nH]ncc4c3)n2n1 [compound 2, 6-Chloro-N-(cyclopropylmethyl)-3-(1H-indazol-5-yl)imidazo[1,2-b]pyridazin-8-amine]",71,91,100,93,73,78,86,36
